Tests used:
Type in all cases: cell-based
Details in all cases: 24 hours of compound treatment, 50 nM and 500 nM
WEE1 = target: T1, WEE1 (Homo sapiens, UniProt P30291+Q96SW2); experiment: Western-blot assay, substrate protein degradation in hPBMCs: WEE1
T1 construct: effects of the compounds of the present disclosure on the expression of target proteins in cells; endogenous in cells; host or cells: human PBMCs (hPBMCs)

IKZF3 = target: T2, IKZF3 (Homo sapiens, UniProt Q96SW2+Q9UKT9); experiment: Western-blot assay, substrate protein degradation in hPBMCs: IKZF3
T2 construct: effects of the compounds of the present disclosure on the expression of target proteins in cells; endogenous in cells; host or cells: human PBMCs (hPBMCs)

IKZF2 = target: T3, IKZF2 (Homo sapiens, UniProt Q96SW2+Q9UKS7); experiment: Western-blot assay, substrate protein degradation in hPBMCs: IKZF2
T3 construct: effects of the compounds of the present disclosure on the expression of target proteins in cells; endogenous in cells; host or cells: human PBMCs (hPBMCs)

CK1α = target: T4, CK1α (Homo sapiens, UniProt P48729+Q96SW2); experiment: Western-blot assay, substrate protein degradation in hPBMCs: CK1α
T4 construct: effects of the compounds of the present disclosure on the expression of target proteins in cells; endogenous in cells; host or cells: human PBMCs (hPBMCs)

IKZF1 = target: T5, IKZF1 (Homo sapiens, UniProt Q13422+Q96SW2); experiment: Western-blot assay, substrate protein degradation in hPBMCs: IKZF1
T5 construct: effects of the compounds of the present disclosure on the expression of target proteins in cells; endogenous in cells; host or cells: human PBMCs (hPBMCs)

GSPT1 = target: T6, GSPT1 (Homo sapiens, UniProt P15170+Q96SW2); experiment: Western-blot assay, substrate protein degradation in hPBMCs: GSPT1
T6 construct: effects of the compounds of the present disclosure on the expression of target proteins in cells; endogenous in cells; host or cells: human PBMCs (hPBMCs)
T6 sequence (P15170 whole entry): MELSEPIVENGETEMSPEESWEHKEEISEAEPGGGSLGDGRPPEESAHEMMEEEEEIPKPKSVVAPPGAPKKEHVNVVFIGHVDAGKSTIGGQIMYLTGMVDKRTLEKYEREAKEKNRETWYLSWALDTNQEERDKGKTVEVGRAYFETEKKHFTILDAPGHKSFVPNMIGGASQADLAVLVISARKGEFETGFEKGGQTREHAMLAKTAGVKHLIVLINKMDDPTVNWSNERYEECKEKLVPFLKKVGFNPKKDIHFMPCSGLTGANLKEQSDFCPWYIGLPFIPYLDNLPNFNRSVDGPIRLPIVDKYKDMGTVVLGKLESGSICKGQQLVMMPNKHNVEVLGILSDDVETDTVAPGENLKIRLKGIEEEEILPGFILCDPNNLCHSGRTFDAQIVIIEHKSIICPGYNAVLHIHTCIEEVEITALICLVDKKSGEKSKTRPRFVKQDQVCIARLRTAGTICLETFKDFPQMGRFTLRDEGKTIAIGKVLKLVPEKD
T6 sequence (Q96SW2 whole entry): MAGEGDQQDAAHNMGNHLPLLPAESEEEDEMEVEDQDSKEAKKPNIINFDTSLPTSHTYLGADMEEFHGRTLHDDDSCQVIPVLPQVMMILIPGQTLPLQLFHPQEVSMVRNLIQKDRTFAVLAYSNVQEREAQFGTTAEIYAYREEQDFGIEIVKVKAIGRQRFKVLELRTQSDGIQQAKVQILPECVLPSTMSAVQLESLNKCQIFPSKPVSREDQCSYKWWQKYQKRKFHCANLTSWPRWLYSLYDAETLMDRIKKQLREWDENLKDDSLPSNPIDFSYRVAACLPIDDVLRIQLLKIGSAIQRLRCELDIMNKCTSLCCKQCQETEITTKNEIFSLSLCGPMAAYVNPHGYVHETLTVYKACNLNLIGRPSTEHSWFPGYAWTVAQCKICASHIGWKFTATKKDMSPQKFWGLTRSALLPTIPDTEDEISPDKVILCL
T6 sequence (Q16531 whole entry partner): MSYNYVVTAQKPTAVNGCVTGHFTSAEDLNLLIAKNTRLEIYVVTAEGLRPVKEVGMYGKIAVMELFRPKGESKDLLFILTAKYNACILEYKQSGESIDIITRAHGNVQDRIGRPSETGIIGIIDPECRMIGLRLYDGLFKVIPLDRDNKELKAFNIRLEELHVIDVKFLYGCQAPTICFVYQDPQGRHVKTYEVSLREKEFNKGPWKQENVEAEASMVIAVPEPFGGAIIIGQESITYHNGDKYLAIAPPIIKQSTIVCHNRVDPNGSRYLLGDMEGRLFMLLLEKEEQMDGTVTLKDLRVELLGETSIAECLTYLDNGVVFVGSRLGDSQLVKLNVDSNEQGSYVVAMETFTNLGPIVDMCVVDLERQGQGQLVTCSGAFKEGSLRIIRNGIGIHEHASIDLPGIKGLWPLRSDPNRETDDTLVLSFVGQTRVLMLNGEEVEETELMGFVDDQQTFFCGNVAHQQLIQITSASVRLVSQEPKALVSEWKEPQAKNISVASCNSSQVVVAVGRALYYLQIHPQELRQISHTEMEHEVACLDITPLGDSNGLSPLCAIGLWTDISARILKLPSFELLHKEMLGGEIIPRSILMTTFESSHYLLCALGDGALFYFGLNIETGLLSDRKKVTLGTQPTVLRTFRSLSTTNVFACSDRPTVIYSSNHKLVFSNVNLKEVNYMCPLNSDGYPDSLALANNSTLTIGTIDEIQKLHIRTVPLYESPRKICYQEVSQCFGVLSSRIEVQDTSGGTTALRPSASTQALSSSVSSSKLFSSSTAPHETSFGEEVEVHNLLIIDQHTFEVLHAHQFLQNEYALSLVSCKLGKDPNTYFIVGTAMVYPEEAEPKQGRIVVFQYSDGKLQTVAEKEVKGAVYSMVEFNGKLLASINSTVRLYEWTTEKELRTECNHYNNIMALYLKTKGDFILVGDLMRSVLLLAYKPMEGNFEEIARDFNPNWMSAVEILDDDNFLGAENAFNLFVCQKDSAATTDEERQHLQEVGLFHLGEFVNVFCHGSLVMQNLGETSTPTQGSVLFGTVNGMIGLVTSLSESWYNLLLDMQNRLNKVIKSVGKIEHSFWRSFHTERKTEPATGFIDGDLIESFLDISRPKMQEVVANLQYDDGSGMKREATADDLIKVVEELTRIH

T5 sequence (Q13422 whole entry): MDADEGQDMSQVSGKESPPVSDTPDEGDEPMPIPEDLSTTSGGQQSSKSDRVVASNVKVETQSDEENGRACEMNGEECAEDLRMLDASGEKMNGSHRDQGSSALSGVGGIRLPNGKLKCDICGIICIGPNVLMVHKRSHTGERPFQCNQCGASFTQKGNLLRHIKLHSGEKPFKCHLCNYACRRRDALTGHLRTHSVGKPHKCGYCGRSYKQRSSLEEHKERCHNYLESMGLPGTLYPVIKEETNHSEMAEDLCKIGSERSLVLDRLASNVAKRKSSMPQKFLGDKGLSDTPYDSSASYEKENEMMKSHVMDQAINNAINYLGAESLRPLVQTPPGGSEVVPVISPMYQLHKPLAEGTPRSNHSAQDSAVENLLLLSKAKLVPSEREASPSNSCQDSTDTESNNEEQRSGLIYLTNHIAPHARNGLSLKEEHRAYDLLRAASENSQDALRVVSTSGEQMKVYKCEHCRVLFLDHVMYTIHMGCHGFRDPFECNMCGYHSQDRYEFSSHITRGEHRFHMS
T5 sequence (Q96SW2 whole entry): as the sequence (Q96SW2 whole entry) above
T5 sequence (Q16531 whole entry partner): as the sequence (Q16531 whole entry partner) above
T4 sequence (P48729 whole entry): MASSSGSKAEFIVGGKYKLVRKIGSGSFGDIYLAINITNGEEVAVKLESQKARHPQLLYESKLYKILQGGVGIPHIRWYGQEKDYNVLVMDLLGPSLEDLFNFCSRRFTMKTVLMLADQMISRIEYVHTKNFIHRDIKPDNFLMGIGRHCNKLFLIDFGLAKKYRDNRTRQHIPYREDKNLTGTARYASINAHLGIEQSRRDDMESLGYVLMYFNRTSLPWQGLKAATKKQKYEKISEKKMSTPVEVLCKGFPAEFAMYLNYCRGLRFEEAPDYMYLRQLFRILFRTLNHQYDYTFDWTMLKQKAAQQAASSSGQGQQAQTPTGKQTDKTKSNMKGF
T4 sequence (Q96SW2 whole entry): as the sequence (Q96SW2 whole entry) above
T4 sequence (Q16531 whole entry partner): as the sequence (Q16531 whole entry partner) above
T1 sequence (P30291 whole entry): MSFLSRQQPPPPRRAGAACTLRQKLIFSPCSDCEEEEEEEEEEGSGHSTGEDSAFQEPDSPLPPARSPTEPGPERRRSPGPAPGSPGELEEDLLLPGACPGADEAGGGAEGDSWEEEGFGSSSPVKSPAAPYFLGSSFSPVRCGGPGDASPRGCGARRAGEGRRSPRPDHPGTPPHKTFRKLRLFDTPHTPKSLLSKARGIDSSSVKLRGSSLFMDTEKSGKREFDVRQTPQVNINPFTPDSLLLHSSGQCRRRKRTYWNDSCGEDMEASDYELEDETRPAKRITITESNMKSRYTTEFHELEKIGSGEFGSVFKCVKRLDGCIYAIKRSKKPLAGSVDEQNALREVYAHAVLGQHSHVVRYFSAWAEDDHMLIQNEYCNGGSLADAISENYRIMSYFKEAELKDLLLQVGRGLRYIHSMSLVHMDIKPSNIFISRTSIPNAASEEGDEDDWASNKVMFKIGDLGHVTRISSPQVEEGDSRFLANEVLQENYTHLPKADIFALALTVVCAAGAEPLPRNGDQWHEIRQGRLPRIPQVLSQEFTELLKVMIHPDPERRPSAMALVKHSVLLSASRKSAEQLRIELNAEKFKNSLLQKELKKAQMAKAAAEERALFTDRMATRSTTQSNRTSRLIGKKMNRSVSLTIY
T1 sequence (Q96SW2 whole entry): as the sequence (Q96SW2 whole entry) above
T1 sequence (Q16531 whole entry partner): as the sequence (Q16531 whole entry partner) above
T2 sequence (Q9UKT9 whole entry): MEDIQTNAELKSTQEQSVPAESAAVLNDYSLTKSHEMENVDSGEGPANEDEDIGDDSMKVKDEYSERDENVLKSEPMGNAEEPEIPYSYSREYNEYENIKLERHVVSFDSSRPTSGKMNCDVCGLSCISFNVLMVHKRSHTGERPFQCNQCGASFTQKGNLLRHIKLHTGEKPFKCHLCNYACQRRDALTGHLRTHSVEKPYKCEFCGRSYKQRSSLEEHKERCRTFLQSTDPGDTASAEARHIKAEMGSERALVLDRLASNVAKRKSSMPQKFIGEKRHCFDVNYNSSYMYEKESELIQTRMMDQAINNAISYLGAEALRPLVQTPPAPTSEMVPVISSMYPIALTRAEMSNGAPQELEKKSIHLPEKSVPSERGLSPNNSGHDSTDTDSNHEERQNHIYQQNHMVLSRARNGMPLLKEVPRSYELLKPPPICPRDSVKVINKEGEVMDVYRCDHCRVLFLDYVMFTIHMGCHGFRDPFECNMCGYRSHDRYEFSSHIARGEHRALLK
T2 sequence (Q96SW2 whole entry): as the sequence (Q96SW2 whole entry) above
T2 sequence (Q16531 whole entry partner): as the sequence (Q16531 whole entry partner) above

Row | Structure (SMILES) | substrate protein remaining % WEE1 (WEE1) | substrate protein remaining % IKZF3 (IKZF3) | substrate protein remaining % IKZF2 (IKZF2) | substrate protein remaining % CK1α (CK1α) | substrate protein remaining % IKZF1 (IKZF1) | substrate protein remaining % GSPT1 (GSPT1)
1 | O=C1CCN(N2C(=O)c3ccc(CN4C5CCC4CN(c4cccc(Cl)c4Cl)C5)cc3C2=O)C(=O)N1 [GT-07438, 5-((3-(2,3-dichlorophenyl)-3,8-diazabicyclo[3.2.1]octan-8-yl)methyl)-2-(2,4-dioxotetrahydropyrimidin-1(2H)-yl)isoindoline-1,3-dione] | A (0% ≤ substrate protein remaining % ≤ 80%) | B (80%< substrate protein remaining %≤ 100%) | B (80%< substrate protein remaining %≤ 100%) | A (0% ≤ substrate protein remaining % ≤ 80%) | B (80%< substrate protein remaining %≤ 100%) | A (0% ≤ substrate protein remaining % ≤ 80%)
2 | O=C1CCN(N2C(=O)c3ccc(CN4CCCN(c5cccc(Cl)c5Cl)CC4)cc3C2=O)C(=O)N1 [GT-07439, 5-((4-(2,3-dichlorophenyl)-1,4-diazepan-1-yl)methyl)-2-(2,4-dioxotetrahydropyrimidin-1(2H)-yl)isoindoline-1,3-dione] | B (80%< substrate protein remaining %≤ 100%) | B (80%< substrate protein remaining %≤ 100%) | B (80%< substrate protein remaining %≤ 100%) | A (0% ≤ substrate protein remaining % ≤ 80%) | B (80%< substrate protein remaining %≤ 100%) | A (0% ≤ substrate protein remaining % ≤ 80%)
3 | O=C1CCN(N2C(=O)c3ccc(CN4CC=C(c5ccnc(Cl)c5Cl)CC4)cc3C2=O)C(=O)N1 [GT-07440, 5-((2',3'-dichloro-3,6-dihydro-[4,4'-bipyridin]-1(2H)-yl)methyl)-2-(2,4-dioxotetrahydropyrimidin-1(2H)-yl)isoindoline-1,3-dione] | A (0% ≤ substrate protein remaining % ≤ 80%) | B (80%< substrate protein remaining %≤ 100%) | B (80%< substrate protein remaining %≤ 100%) | A (0% ≤ substrate protein remaining % ≤ 80%) | B (80%< substrate protein remaining %≤ 100%) | A (0% ≤ substrate protein remaining % ≤ 80%)
4 | O=C1CCN(N2C(=O)c3ccc(CN4CC=C(c5ccoc5)CC4)cc3C2=O)C(=O)N1 [GT-07442, 2-(2,4-dioxotetrahydropyrimidin-1(2H)-yl)-5-((4-(furan-3-yl)-3,6-dihydropyridin-1(2H)-yl)methyl)isoindoline-1,3-dione] | A (0% ≤ substrate protein remaining % ≤ 80%) | A (0% ≤ substrate protein remaining % ≤ 80%) | B (80%< substrate protein remaining %≤ 100%) | B (80%< substrate protein remaining %≤ 100%) | B (80%< substrate protein remaining %≤ 100%) | A (0% ≤ substrate protein remaining % ≤ 80%)
5 | O=C1CCN(N2C(=O)c3ccc(CN4CC=C(c5cncc(Cl)c5)CC4)cc3C2=O)C(=O)N1 [GT-07491, 5-((5-chloro-3',6'-dihydro-[3,4'-bipyridin]-1'(2'H)-yl)methyl)-2-(2,4-dioxotetrahydropyrimidin-1(2H)-yl)isoindoline-1,3-dione] | A (0% ≤ substrate protein remaining % ≤ 80%) | B (80%< substrate protein remaining %≤ 100%) | B (80%< substrate protein remaining %≤ 100%) | B (80%< substrate protein remaining %≤ 100%) | B (80%< substrate protein remaining %≤ 100%) | A (0% ≤ substrate protein remaining % ≤ 80%)
6 | O=C1CCN(N2C(=O)c3ccc(CN4CC=C(c5ncccc5F)CC4)cc3C2=O)C(=O)N1 [GT-07492, 2-(2,4-dioxotetrahydropyrimidin-1(2H)-yl)-5-((3-fluoro-3',6'-dihydro-[2,4'-bipyridin]-1'(2'H)-yl)methyl)isoindoline-1,3-dione] | B (80%< substrate protein remaining %≤ 100%) | B (80%< substrate protein remaining %≤ 100%) | B (80%< substrate protein remaining %≤ 100%) | A (0% ≤ substrate protein remaining % ≤ 80%) | B (80%< substrate protein remaining %≤ 100%) | B (80%< substrate protein remaining %≤ 100%)
7 | O=C1CCN(N2C(=O)c3ccc(CN4CCC(c5ccnc(F)c5F)CC4)cc3C2=O)C(=O)N1 [GT-07493, 5-((4-(2,3-difluoropyridin-4-yl)piperidin-1-yl)methyl)-2-(2,4-dioxotetrahydropyrimidin-1(2H)-yl)isoindoline-1,3-dione] | B (80%< substrate protein remaining %≤ 100%) | A (0% ≤ substrate protein remaining % ≤ 80%) | B (80%< substrate protein remaining %≤ 100%) | A (0% ≤ substrate protein remaining % ≤ 80%) | B (80%< substrate protein remaining %≤ 100%) | B (80%< substrate protein remaining %≤ 100%)
8 | O=C1CCN(N2C(=O)c3ccc(CN4CC=C(c5ccnc(F)c5F)CC4)cc3C2=O)C(=O)N1 [GT-07494, 5-((2',3'-difluoro-3,6-dihydro-[4,4'-bipyridin]-1(2H)-yl)methyl)-2-(2,4-dioxotetrahydropyrimidin-1(2H)-yl)isoindoline-1,3-dione] | A (0% ≤ substrate protein remaining % ≤ 80%) | B (80%< substrate protein remaining %≤ 100%) | B (80%< substrate protein remaining %≤ 100%) | A (0% ≤ substrate protein remaining % ≤ 80%) | B (80%< substrate protein remaining %≤ 100%) | B (80%< substrate protein remaining %≤ 100%)
9 | O=C1CCN(N2Cc3cc(CN4CCC(c5ccon5)CC4)ccc3C2=O)C(=O)N1 [GT-07495, 1-(5-((4-(isoxazol-3-yl)piperidin-1-yl)methyl)-1-oxoisoindolin-2-yl)dihydropyrimidine-2,4(1H,3H)-dione] | B (80%< substrate protein remaining %≤ 100%) | B (80%< substrate protein remaining %≤ 100%) | B (80%< substrate protein remaining %≤ 100%) | A (0% ≤ substrate protein remaining % ≤ 80%) | B (80%< substrate protein remaining %≤ 100%) | A (0% ≤ substrate protein remaining % ≤ 80%)
10 | O=C1CCN(N2Cc3cc(CN4CCN(c5noc6cc(F)ccc56)CC4)ccc3C2=O)C(=O)N1 [GT-07496, 1-(5-((4-(6-fluorobenzo[d]isoxazol-3-yl)piperazin-1-yl)methyl)-1-oxoisoindolin-2-yl)dihydropyrimidine-2,4(1H,3H)-dione] | B (80%< substrate protein remaining %≤ 100%) | B (80%< substrate protein remaining %≤ 100%) | B (80%< substrate protein remaining %≤ 100%) | A (0% ≤ substrate protein remaining % ≤ 80%) | B (80%< substrate protein remaining %≤ 100%) | A (0% ≤ substrate protein remaining % ≤ 80%)
11 | O=C1CCN(N2Cc3cc(CN4CCN(c5noc6ccncc56)CC4)ccc3C2=O)C(=O)N1 [GT-07497, 1-(5-((4-(isoxazolo[4,5-c]pyridin-3-yl)piperazin-1-yl)methyl)-1-oxoisoindolin-2-yl)dihydropyrimidine-2,4(1H,3H)-dione] | A (0% ≤ substrate protein remaining % ≤ 80%) | B (80%< substrate protein remaining %≤ 100%) | A (0% ≤ substrate protein remaining % ≤ 80%) | A (0% ≤ substrate protein remaining % ≤ 80%) | A (0% ≤ substrate protein remaining % ≤ 80%) | A (0% ≤ substrate protein remaining % ≤ 80%)
12 | O=C1CCN(N2Cc3cc(CN4CCN(c5nsc6cc(F)ccc56)CC4)ccc3C2=O)C(=O)N1 [GT-07500, 1-(5-((4-(6-fluorobenzo[d]isothiazol-3-yl)piperazin-1-yl)methyl)-1-oxoisoindolin-2-yl)dihydropyrimidine-2,4(1H,3H)-dione] | A (0% ≤ substrate protein remaining % ≤ 80%) | B (80%< substrate protein remaining %≤ 100%) | B (80%< substrate protein remaining %≤ 100%) | A (0% ≤ substrate protein remaining % ≤ 80%) | A (0% ≤ substrate protein remaining % ≤ 80%) | A (0% ≤ substrate protein remaining % ≤ 80%)
13 | O=C1CCN(N2Cc3cc(CN4CCN(c5c[nH]c6ncccc56)CC4)ccc3C2=O)C(=O)N1 [GT-07502, 1-(5-((4-(1H-pyrrolo[2,3-b]pyridin-3-yl)piperazin-1-yl)methyl)-1-oxoisoindolin-2-yl)dihydropyrimidine-2,4(1H,3H)-dione] | A (0% ≤ substrate protein remaining % ≤ 80%) | B (80%< substrate protein remaining %≤ 100%) | B (80%< substrate protein remaining %≤ 100%) | A (0% ≤ substrate protein remaining % ≤ 80%) | A (0% ≤ substrate protein remaining % ≤ 80%) | A (0% ≤ substrate protein remaining % ≤ 80%)
